Data as given in US7910582B2, “Cyclopropyl amines as modulators of the histamine H3 receptor” (Janssen Pharmaceutica NV, priority 2005, dated 2011).
Counter-ions that a name gives are not always drawn. Like-named read-outs stand apart in the source and are kept apart here.

Assays:
[1] = molecular target: T1, Human H3 Receptor (Homo sapiens, UniProt Q9Y5N1); assay: [3H]-N-Methylhistamine binding, membranes of H3 receptor-expressing SK-N-MC cells; conditions: 0.8 nM [3H]-N-methylhistamine, 60 min at 25° C., average of results
T1 construct: expressed in transfected cells
Description: (§1) Cells were grown to about 70% to 80% confluence and removed from the plate with trypsin and pelleted in a clinical centrifuge. The pellet was then re-suspended in 400 μL of complete media and transferred to an electroporation cuvette with a 0.4 cm gap between the electrodes (Bio-Rad #165-2088). One μg supercoiled H3 receptor cDNA was added to the cells and mixed gently. The voltage for the electroporation was set at 0.25 kV and the capacitance was set at 960 μF. After electroporation the cells were diluted with 10 mL of complete media and were plated onto four 10 cm dishes at the following ratios: 1:20, 1:10, 1:5, and 1:2. The cells were allowed to recover for 24 h before adding 600 μg G-418. Colonies that survived selection were grown and tested. SK-N-MC cells were used because they give efficient coupling for inhibition of adenylate cyclase. The clones that gave the most robust inhibition of adenylate cyclase in response to histamine were used for further study.
Cell pellets from histamine H3 receptor-expressing SK-N-MC cells were homogenized in 50 mM TrisHCl/0.5 mM EDTA. Supernatants from an 800 g spin were collected and were recentrifuged at 30,000 g for 30 min. Pellets were re-homogenized in 50 mM Tris/5 mM EDTA (pH 7.4). Membranes were incubated with 0.8 nM [^3H]-N-methylhistamine plus/minus test compounds for 60 min at 25° C. and were harvested by rapid filtration over GF/C glass fiber filters (pretreated with 0.3% polyethylenimine) followed by four washes with buffer. Filters were added to 5 mL of scintillation cocktail, and the signal was then counted on a liquid scintillation counter.

[2] = Pharmacokinetics and bioanalysis in the rat; type: in vivo, male Sprague Dawley Rats; conditions: for half-life (T1/2) relative to the comparative examples / volume of distribution (Vd) relative to the comparative examples: compared with isopropyl / cyclobutyl analogs
Description: One group of six male Sprague Dawley Rats (approx. 300 g body weight; three animals per time point) was used. They were group-housed, provided food and water ad libitum, and were maintained on a 12-h light and dark cycle. Animals were acclimatized for at least 7 days after receipt from the vendor prior to investigations.
For oral dosing, test compounds were formulated at 1 mg/mL in 0.5% hydroxypropyl methyl cellulose and delivered at a dose of 10 mg/kg. Citric acid salt forms (prepared as described for Example 1B) of the test compounds were used. Animals received a bolus dose of 10 mg/kg (10 mL/kg) for each compound via a 16 gauge intragastric gavage. For intravenous dosing, test compounds were formulated at 1 mg/mL in 5% dextrose in water and dosed at 1 mg/kg (1 mL/kg) with a bolus intravenous dose via a 24-gauge Terumo® Surflo® catheter in the lateral tail vein. All dosing solutions were prepared immediately prior to injection.
Blood samples (250 μL) were taken from the lateral tail vein into heparinized Natelson blood collection tubes and expelled into 1.5 mL mcirocentrifuge tubes. The blood samples were centrifuged for 5 min at 14,000 rpm in a micro-centrifuge. Plasma was retained and kept in a −20° C. freezer until analysis by LC-MS/MS.
Data analysis was performed using WinNonlin version 3.3 or 4.0.1. A non -compartmental model (#200 for Extravascular administration and #201 for i.v.) was used to determine the pharmacokinetic parameters shown in Tables 4 and 5 (NA=not applicable or not determined).

[3] = molecular target: T1, Human H3 Receptor; assay: Cyclic AMP accumulation, SK-N-MC cells with reporter construct and human H3 receptor (pA2); type: cell-based; conditions: pA2, average of results
Description: as §1, with “The pellet was then re-suspended in 400 μL of complete media and transferred to an electroporation cuvette with a 0.4 cm gap between the electrodes (Bio-Rad #165-2088).” left out, “The cells were allowed to recover for 24 h before adding 600 μg G-418.” left out
Sublines of SK-N-MC cells were created that expressed a reporter construct and the human H3 receptor.

[4] = male, Sprague Dawley, iv, i.v. 1 mg/kg, citric acid salt, plasma
[5] = male, Sprague Dawley, iv, i.v. 1 mg/kg, citric acid salt, plasma, read-out: AUCINF (h-μmol/mL)
[6] = male, Sprague Dawley, oral 10 mg/kg, citric acid salt, plasma
[7] = male, Sprague Dawley, oral 10 mg/kg, citric acid salt, plasma, read-out: AUCINF (h-μmol/mL)
[8] = male, Sprague Dawley, plasma, iv, i.v. 1 mg/kg, citric acid salt, read-out: Vd
[9] = oral 10 mg/kg, citric acid salt
[10] = male, Sprague Dawley, iv, i.v. 1 mg/kg, citric acid salt, plasma, read-out: AUCINF
[11] = male, Sprague Dawley, oral 10 mg/kg, citric acid salt, plasma, read-out: AUCINF

T1 sequence (Q9Y5N1 whole entry): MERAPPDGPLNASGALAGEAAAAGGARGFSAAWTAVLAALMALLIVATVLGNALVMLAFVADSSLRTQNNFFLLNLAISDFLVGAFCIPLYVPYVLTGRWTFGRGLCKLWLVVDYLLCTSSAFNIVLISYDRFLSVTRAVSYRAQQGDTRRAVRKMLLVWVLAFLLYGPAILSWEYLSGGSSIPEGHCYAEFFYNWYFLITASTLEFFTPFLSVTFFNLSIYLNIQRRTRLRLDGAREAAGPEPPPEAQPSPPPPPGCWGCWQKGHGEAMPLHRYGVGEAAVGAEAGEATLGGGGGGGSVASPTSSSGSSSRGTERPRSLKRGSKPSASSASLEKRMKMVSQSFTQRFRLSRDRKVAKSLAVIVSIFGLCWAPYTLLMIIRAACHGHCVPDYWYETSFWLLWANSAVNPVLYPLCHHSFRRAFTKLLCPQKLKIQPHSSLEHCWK

| Compound | Ki ([1]; read-out: Ki) [nM] | CI ([2]; i.v. 1 mg/kg, citric acid salt) [mL/min/kg] | Cmax [2, 4] | half-life [2, 4] [h] | AUC(0-inf) [2, 5] [µM·h] | Cmax [2, 6] | Tmax [2, 6] [h] | half-life [2, 6] [h] | AUC(0-inf) [2, 7] [µM·h] | Vd [2, 8] [L/kg] | other results |
| --- | --- | --- | --- | --- | --- | --- | --- | --- | --- | --- | --- |
| CC(C)N1CCN(C(=O)c2ccc(CN3CCC(F)CC3)cc2)CC1 [Comparative Example 3, [4-(4-Fluoro-piperidin-1-ylmethyl)-phenyl]-(4-isopropyl-piperazin-1-yl)-methanone] | 2 | – | – | – | – | – | – | – | – | – | – |
| O=C(O)CC(O)(CC(=O)O)C(=O)O.O=C(c1ccc(CN2CCOC(CO)C2)cc1)N1CCN(C2CC2)CC1 (centres unmarked) [Example 4B, (4-Cyclopropyl-piperazin-1-yl)-[4-(2-hydroxymethyl-morpholin-4-ylmethyl)-phenyl]-methanone citrate salt] | 23 | 15.2 | 2920 nM | 1.47 | 3.07 | 8730 nM | 0.83 | 3.58 | 33.2 | 1.91 | half-life (T1/2) relative to the comparative examples [2]: shorter T1/2; volume of distribution (Vd) relative to the comparative examples [2]: lower Vd |
| O=C(O)CC(O)(CC(=O)O)C(=O)O.O=C(c1ccc(CN2CCC(F)CC2)cc1)N1CCN(C2CCC2)CC1 [Comparative Example 4B, (4-Cyclobutyl-piperazin-1-yl)-[4-(4-fluoro-piperidin-1-ylmethyl)-phenyl]-methanone citrate salt] | – | 113 | 460 nM | 2.08 | 0.41 | 480 nM | 0.67 | 3.44 | 1.28 | – | Vd ([2]; i.v. 1 mg/kg, citric acid salt): 20.3 L/kg; CI [2, 9]: 1135 mL/min/kg; Vd [2, 9]: 397 L/kg |
| CC(C)N1CCN(C(=O)c2ccc(CN3CCOCC3)cc2)CC1 [Comparative Example 1, (4-Isopropyl-piperazin-1-yl)-(4-morpholin-4-ylmethyl-phenyl) -methanone] | – | – | – | – | – | – | – | – | – | – | Kb [3]: 1 nM |
| CC(C)N1CCN(C(=O)c2ccc(CN3CCOCC3)cc2)CC1 [Comparative Example 1A, (4-Isopropyl-piperazin-1-yl)-(4-morpholin-4-ylmethyl-phenyl) -methanone dihydrochloride] | – | – | – | – | – | – | – | – | – | – | Kb [3]: 1.26 nM |
| O=C(O)CC(O)(CC(=O)O)C(=O)O.O=C(c1ccc(CN2CCSCC2)cc1)N1CCN(C2CCC2)CC1 [Comparative Example 5B, (4-Cyclobutyl-piperazin-1-yl)-(4-thiomorpholin-4-ylmethyl-phenyl)-methanone citrate salt] | – | 154 | 2680 nM | 1.33 | 0.42 | 70 nM | 0.38 | 0.95 | 0.12 | 17.8 | – |
| O=C(O)CC(O)(CC(=O)O)C(=O)O.O=C(c1ccc(CN2CCOCC2)cc1)N1CCN(C2CC2)CC1 [Example 1B, (4-Cyclopropyl-piperazin-1-yl)-(4-morpholin-4-ylmethyl-phenyl) -methanone citrate salt] | – | 21.6 | 935 ng/mL | 0.92 | – | 2790 ng/mL | 0.5 | 3.11 | – | 1.72 | Ki ([1]; Ki (nM)): 6.5 nM; half-life (T1/2) relative to the comparative examples [2]: shorter half-life; volume of distribution (Vd) relative to the comparative examples [2]: lower volume of distribution; AUC(0-inf) [2, 10]: 777 ng·h/mL; AUC(0-inf) [2, 11]: 8720 ng·h/mL; CI [2, 9]: 20.2 mL/min/kg; Vd [2, 9]: 5.45 L/kg |
| O=C(c1ccc(CN2CCOCC2)cc1)N1CCN(C2CCC2)CC1 [Comparative Example 2A, (4-Cyclobutyl-piperazin-1-yl)-(4-morpholin-4-ylmethyl-phenyl)-methanone dihydrochloride] | 1.7 | – | – | – | – | – | – | – | – | – | – |
| O=C(c1ccc(CN2CCC(F)CC2)cc1)N1CCN(C2CC2)CC1 [Example 2, (4-Cyclopropyl-piperazin-1-yl)-[4-(4-fluoro-piperidin-1-ylmethyl)-phenyl]-methanone] | 2 | – | – | – | – | – | – | – | – | – | – |
| O=C(c1ccc(CN2CCOC(CO)C2)cc1)N1CCN(C2CC2)CC1 (centres unmarked) [Example 4, (4-Cyclopropyl-piperazin-1-yl)-[4-(2-hydroxymethyl-morpholin-4-ylmethyl)-phenyl]-methanone] | 6 | – | – | – | – | – | – | – | – | – | – |
| CC(C)N1CCN(C(=O)c2ccc(CN3CCOC(CO)C3)cc2)CC1 (centres unmarked) [Comparative Example 6B, [4-(2-Hydroxymethyl-morpholin-4-ylmethyl)-phenyl]-(4-isopropyl-piperazin-1-yl)-methanone citratae salt] | 5 | 34.9 | 1410 nM | 2.36 | 1.34 | 2960 nM | 0.5 | 4.35 | 20 | 7.04 | – |
| O=C(O)CC(O)(CC(=O)O)C(=O)O.O=C(c1ccc(CN2CCOCC2)cc1)N1CCN(C2CCC2)CC1 [Comparative Example 2B, (4-Cyclobutyl-piperazin-1-yl)-(4-morpholin-4-ylmethyl-phenyl)-methanone citrate salt] | 2 | 34.8 | 285 ng/mL | 1.86 | – | 683 ng/mL | 1.33 | 2.89 | – | 6.41 | AUC(0-inf) [2, 10]: 464 ng·h/mL; AUC(0-inf) [2, 11]: 4100 ng·h/mL; CI [2, 9]: 43.2 mL/min/kg; Vd [2, 9]: 10.33 L/kg |
| O=C(O)CC(O)(CC(=O)O)C(=O)O.O=C(c1ccc(CN2CCSCC2)cc1)N1CCN(C2CC2)CC1 [Example 3B, (4-Cyclopropyl-piperazin-1-yl)-(4-thiomorpholin-4-ylmethyl-phenyl) -methanone citrate salt] | – | 282 | 860 nM | 0.27 | 0.18 | 190 nM | 0.25 | 0.41 | 0.18 | 6.48 | half-life (T1/2) relative to the comparative examples [2]: shorter T1/2; volume of distribution (Vd) relative to the comparative examples [2]: lower Vd |
| O=C(c1ccc(CN2CCSCC2)cc1)N1CCN(C2CC2)CC1 [Example 3, (4-Cyclopropyl-piperazin-1-yl)-(4-thiomorpholin-4-ylmethyl-phenyl) -methanone] | 2.5 | – | – | – | – | – | – | – | – | – | – |
| CC(C)N1CCN(C(=O)c2ccc(CN3CCOCC3)cc2)CC1.O=C(O)CC(O)(CC(=O)O)C(=O)O [Comparative Example 1B, (4-Isopropyl-piperazin-1-yl)-(4-morpholin-4-ylmethyl-phenyl) -methanone citrate salt] | – | 12.8 | 4110 ng/mL | – | – | 1050 ng/mL | 1.5 | 4.71 | – | 3.55 | T1/2 ([2]; i.v. 1 mg/kg, citric acid salt, plasma): 3.2 h; AUC(0-inf) [2, 10]: 1560 ng·h/mL; AUC(0-inf) [2, 11]: 9740 ng·h/mL; CI [2, 9]: 17.1 mL/min/kg; Vd [2, 9]: 6.98 L/kg |
| O=C(c1ccc(CN2CCSCC2)cc1)N1CCN(C2CCC2)CC1 [Comparative Example 5, (4-Cyclobutyl-piperazin-1-yl)-(4-thiomorpholin-4-ylmethyl-phenyl)-methanone] | 1 | – | – | – | – | – | – | – | – | – | – |
